Test results from patent publication US10336730B2, “Substituted glycine derived FXIA inhibitors” (BRISTOL-MYERS SQUIBB COMPANY, priority 2015, dated 2019).

biological target: T1, purified human Factor XIa (Homo sapiens, UniProt P03951); experiment: Factor XIa enzyme inhibition assay (chromogenic substrate S-2366), Ki; type: biochemical; settings: substrate S-2366, pH 7.4
T1 construct: purchased Haematologic Technologies
Experimental: The effectiveness of compounds of the present invention as inhibitors of the coagulation Factors XIa, VIIa, IXa, Xa, XIIa, plasma kallikrein, thrombin, chemytrypsin or trypsin can be determined using a relevant purified serine protease, respectively, and an appropriate synthetic substrate. The rate of hydrolysis of the chromogenic or fluorogenic substrate by the relevant serine protease was measured both in the absence and presence of compounds of the present invention. […] A decrease in the rate of absorbance or fluorescence change in the presence of inhibitor is indicative of enzyme inhibition. Such methods are known to one skilled in the art. The results of this assay are expressed as the inhibitory constant, Ki.
Factor XIa determinations were made in 50 mM HEPES buffer at pH 7.4 containing 145 mM NaCl, 5 mM KCl, and 0.1% PEG 8000 (polyethylene glycol; JT Baker or Fisher Scientific). Determinations were made using purified human Factor XIa at a final concentration of […] (Haematologic Technologies) and the synthetic substrate S-2366 (pyroGlu-Pro-Arg-pNA; CHROMOGENIX® or AnaSpec) at a concentration of 0.0002-0.001 M.
Values of Ki were determined by allowing the protease to react with the substrate in the presence of the inhibitor. Reactions were allowed to go for periods of 20-180 minutes (depending on the protease) and the velocities (rate of absorbance or fluorescence change versus time) were measured. The following relationships were used to calculate Ki values: (Vmax*S)/(Km+S) (vo−vs)/vs=I/(Ki*(1+S/Km)) for a competitive inhibitor with one binding site; or vs/vo=A+(B−A)/(1+(IC50/(I)^n)); and Ki=IC50/(1+S/Km) for a competitive inhibitor where: […]

T1 sequence (P03951 388-625 limits assumed): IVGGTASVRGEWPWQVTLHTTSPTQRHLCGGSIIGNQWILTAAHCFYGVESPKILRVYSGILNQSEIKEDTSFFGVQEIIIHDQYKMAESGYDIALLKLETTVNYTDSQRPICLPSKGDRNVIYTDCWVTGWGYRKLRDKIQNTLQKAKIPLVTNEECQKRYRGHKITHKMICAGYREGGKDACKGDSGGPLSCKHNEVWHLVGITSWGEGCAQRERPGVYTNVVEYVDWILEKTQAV
T1 sequence (P03951 19-387 partner limits assumed): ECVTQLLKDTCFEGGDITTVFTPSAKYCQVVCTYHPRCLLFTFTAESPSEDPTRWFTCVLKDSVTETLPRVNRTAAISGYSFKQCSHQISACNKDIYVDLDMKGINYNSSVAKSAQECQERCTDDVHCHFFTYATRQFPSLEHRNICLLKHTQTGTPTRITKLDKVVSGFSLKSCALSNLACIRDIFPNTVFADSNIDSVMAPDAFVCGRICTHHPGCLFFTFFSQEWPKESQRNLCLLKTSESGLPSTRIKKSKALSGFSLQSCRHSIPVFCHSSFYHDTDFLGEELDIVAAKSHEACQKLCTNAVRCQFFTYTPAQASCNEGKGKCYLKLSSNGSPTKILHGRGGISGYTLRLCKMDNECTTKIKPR

SMILES | Ki
CN1CCC(CNC(=O)[C@H](Cc2ccccc2)n2cnc(-c3cc(Cl)ccc3-n3cc(Cl)nn3)cc2=O)C1 (mixture of isomers) [Example 48, (2S)-2-(4-(5-chloro-2-(4-chloro-1H-1,2,3-triazol-1-yl)phenyl)-6-oxopyrimidin-1(6H)-yl)-N-((1-methylpyrrolidin-3-yl)methyl)-3-phenylpropanamide] | 7370 nM
O=C([C@H](Cc1ccccc1)n1cnc(-c2cc(Cl)ccc2-n2cc(Cl)nn2)cc1=O)N1CCC(N2C(=O)CCC2O)CC1 (mixture of isomers) [Example 49, 6-(5-chloro-2-(4-chloro-1H-1,2,3-triazol-1-yl)phenyl)-3-((2S)-1-(4-(2-hydroxy-5-oxopyrrolidin-1-yl)piperidin-1-yl)-1-oxo-3-phenylpropan-2-yl)pyrimidin-4(3H)-one] | 7370 nM
N#Cc1cccc(C[C@@H](C(=O)Nc2ccc(C(=O)O)cc2)N2CCC(c3cc(Cl)ccc3-n3ccnn3)=CC2=O)c1 [Compound 138, (S)-4-(2-(4-(5-chloro-2-(1H-1,2,3-triazol-1-yl)phenyl)-6-oxo-3,6-dihydropyridin-1(2H)-yl)-3-(3-cyanophenyl)propanamido) benzoic Acid] | 41.6 nM
NC(=O)c1cccc(C[C@@H](C(=O)Nc2ccc(C(=O)O)cc2)N2CCC(c3cc(Cl)ccc3-n3ccnn3)=CC2=O)c1 [Compound 139, (S)-4-(3-(3-carbamoylphenyl)-2-(4-(5-chloro-2-(1H-1,2,3-triazol-1-yl)phenyl)-6-oxo-3,6-dihydropyridin-1(2H)-yl)propanamido)benzoic Acid] | 25.2 nM
CCOC(=O)Cc1ccc(NC(=O)[C@H](Cc2ccccc2)n2cnc(-c3cc(Cl)ccc3-n3cc(Cl)nn3)cc2=O)cc1 [Example 20, ethyl (S)-2-(4-(2-(4-(5-chloro-2-(4-chloro-1H-1,2,3-triazol-1-yl)phenyl)-6-oxopyrimidin-1(6H)-yl)-3-phenylpropanamido)phenyl)acetate] | 128 nM
O=C(Nc1ncn(CC2CCCC2)n1)[C@H](Cc1ccccc1)n1cnc(-c2cc(Cl)ccc2-n2cc(Cl)nn2)cc1=O [Example 21, (S)-2-(4-(5-chloro-2-(4-chloro-1H-1,2,3-triazol-1-yl)phenyl)-6-oxopyrimidin-1(6H)-yl)-N-(1-(cyclopentylmethyl)-1H-1,2,4-triazol-3-yl)-3-phenylpropanamide] | 553 nM
COC(=O)c1ccc(NC(=O)[C@H](Cc2ccccc2)n2cnc(-c3cc(Cl)ccc3-n3cc(Cl)nn3)cc2=O)cc1 [Example 22, methyl (S)-4-(2-(4-(5-chloro-2-(4-chloro-1H-1,2,3-triazol-1-yl)phenyl)-6-oxopyrimidin-1(6H)-yl)-3-phenylpropanamido)benzoate] | 83.7 nM
O=C(Nc1ccc(Cc2ccncc2)cc1)[C@H](Cc1ccccc1)n1cnc(-c2cc(Cl)ccc2-n2cc(Cl)nn2)cc1=O [Example 24, (S)-2-(4-(5-chloro-2-(4-chloro-1H-1,2,3-triazol-1-yl)phenyl)-6-oxopyrimidin-1(6H)-yl)-3-phenyl-N-(4-(pyridin-4-ylmethyl)phenyl)propanamide] | 112 nM
O=C(Nc1ccc(-c2ccncc2)cc1)[C@H](Cc1ccccc1)n1cnc(-c2cc(Cl)ccc2-n2cc(Cl)nn2)cc1=O [Example 25, (S)-2-(4-(5-chloro-2-(4-chloro-1H-1,2,3-triazol-1-yl)phenyl)-6-oxopyrimidin-1(6H)-yl)-3-phenyl-N-(4-(pyridin-4-yl)phenyl)propanamide] | 49.6 nM
O=C(Nc1cccc2[nH]ccc12)[C@H](Cc1ccccc1)n1cnc(-c2cc(Cl)ccc2-n2cc(Cl)nn2)cc1=O [Example 26, (S)-2-(4-(5-chloro-2-(4-chloro-1H-1,2,3-triazol-1-yl)phenyl)-6-oxopyrimidin-1(6H)-yl)-N-(1H-indol-4-yl)-3-phenylpropanamide] | 22.3 nM
Cn1cnc2cc(NC(=O)[C@H](Cc3ccccc3)n3cnc(-c4cc(Cl)ccc4-n4cc(Cl)nn4)cc3=O)cnc21 [Example 27, (S)-2-(4-(5-chloro-2-(4-chloro-1H-1,2,3-triazol-1-yl)phenyl)-6-oxopyrimidin-1(6H)-yl)-N-(3-methyl-3H-imidazo[4,5-b]pyridin-6-yl)-3-phenylpropanamide] | 420 nM
